These are literature values, as cited in US11147926B2, “Intrathecal baclofen pharmaceutical dosage forms and related delivery system” (PIRAMAL CRITICAL CARE, INC., priority 2008, dated 2021).

Molecules are shown by their SMILES.

The conditions of series [1]: injected into the intrathecal space of a patient, at effective CSF concentrations, versus oral.

Consider `NCC(CC(=O)O)c1ccc(Cl)cc1` (stereo not shown) [Baclofen, 4-amino-3-(p-chlorophenyl)butyric acid], for which the “plasma concentrations, times less than with oral administration” value in series [1] was 100 times. For the setting “chloroform”, the solubility in chloroform result is listed as “insoluble”. The solubility in methanol result (methanol) is listed as “very slightly soluble”. Also, where the note is “water”, the solubility in water result is given as “slightly soluble”.
